From patent US11331304B2, “YAP1 inhibitors and methods” (The Jackson Laboratory, priority 2016, dated 2022) come the findings set out here.

A short description of this data set: Solubility of verteporfin derivative compounds in water and buffer (pH = 2). The class given is physicochemical. To be noted: for Water result: at the amount per volume in mg/mL.

On to `C=Cc1c(C)c2cc3nc(cc4[nH]c(cc5nc(cc1[nH]2)C(C)=C5CCC(=O)OCCOCCOCCOC)c(CCC(=O)OC)c4C)[C@@]1(C)C3=CC=C(C(=O)OC)[C@H]1C(=O)OC` [Compound T8, Methyl 3-[(23S,24R)-14-ethenyl-9-[3-[2-[2-(2-methoxyethoxy)ethoxy]ethoxy]-3-oxo-propyl]-22,23-bis(methoxycarbonyl)-4,10,15,24-tetramethyl-25,26,27,28-tetraazahexacyclo[16.6.1.13,6.18,11.113,16.019,24]octacosa-1,3,5,7,9,11(27),12,14,16,18(25), 19,21-dodecaen-5-yl]propanoate], for which the Water result was “insoluble”. Moreover, the “Buffer (pH = 2) result” value (phosphate buffer pH = 2) is reported as “insoluble”.

As to `C=Cc1c(C)c2cc3nc(cc4[nH]c(cc5nc(cc1[nH]2)C(C)=C5CCC(=O)N[C@@H](CC(=O)O)C(=O)O)c(CCC(=O)N[C@@H](CC(=O)O)C(=O)O)c4C)[C@@]1(C)C3=CC=C(C(=O)OC)[C@H]1C(=O)OC` [Compound T3, (2S)-2-[3-[(23 S,24R)-14-ethenyl-5-[3-[[(1 S)-1,2-dicarboxyethyl]amino]-3-oxo-propyl]-22,23-bis(methoxycarbonyl)-4,10,15,24-tetramethyl-25,26,27,28-tetraazahexacyclo[16.6.1.13,6.18,11.113,16.019,24]octacosa-1,3,5,7,9,11(27),12,14,16,18(25), 19,21-dodecaen-9-yl]propanoylamino]butanedioic acid], the Water result is “insoluble”. Further, for the setting “phosphate buffer pH = 2”, the “Buffer (pH = 2) result” value was “insoluble”.

As to `C=Cc1c(C)c2cc3nc(cc4[nH]c(cc5nc(cc1[nH]2)C(C)=C5CCC(=O)NCCCC[C@H](N)C(=O)O)c(CCC(=O)NCCCC[C@H](N)C(=O)O)c4C)[C@@]1(C)C3=CC=C(C(=O)OC)[C@H]1C(=O)OC` [Compound T7, (2S)-2-amino-6-[3-[(23 S,24R)-14-ethenyl-5-[3-[[(5 S)-5-amino-5-carboxy-pentyl]amino]-3-oxo-propyl]-22,23-bis(methoxycarbonyl)-4,10,15,24-tetramethyl-25,26,27,28-tetraazahexacyclo[16.6.1.13,6.18,11.113,16.019,24]octacosa-1,3,5,7,9,11(27),12,14,16,18(25), 19,21-dodecaen-9-yl]propanoylamino]hexanoic acid], the Water result is “soluble”. Also, the “Buffer (pH = 2) result” value (phosphate buffer pH = 2) was “soluble”.

For the compound `C=Cc1c(C)c2cc3nc(cc4[nH]c(cc5nc(cc1[nH]2)C(C)=C5CCC(=O)OCCOCCOCCOCCOCCOCCOCCOC)c(CCC(=O)OC)c4C)[C@@]1(C)C3=CC=C(C(=O)OC)[C@H]1C(=O)OC` [Compound T10, Methyl 3-[(23S,24R)-14-ethenyl-9-[3-[2-[2-[2-[2-[2-[2-(2-methoxyethoxy)ethoxy]ethoxy]ethoxy]ethoxy]ethoxy]ethoxy]-3-oxo-propyl]-22,23-bis(methoxycarbonyl)-4,10,15,24-tetramethyl-25,26,27,28-tetraazahexacyclo[16.6.1.13,6.18,11.113,16.019,24]octacosa-1,3,5,7,9,11(27),12,14,16,18(25), 19,21-dodecaen-5-yl]propanoate], the Water result is on record as “insoluble”. Under “phosphate buffer pH = 2”, the “Buffer (pH = 2) result” value was “insoluble”.

For `C=Cc1c(C)c2cc3nc(cc4[nH]c(cc5nc(cc1[nH]2)C(C)=C5CCC(=O)N[C@@H](CC(=O)O)C(=O)O)c(CCC(=O)OC)c4C)[C@@]1(C)C3=CC=C(C(=O)OC)[C@H]1C(=O)OC` [Compound T1, (2S)-2-[3-[(23 S,24R)-14-ethenyl-5-(3-methoxy-3-oxopropyl)-22,23-bis(methoxycarbonyl)-4,10,15,24-tetramethyl-25,26,27,28-tetraazahexacyclo[16.6.1.13,6.18,11.113,16.019,24]octacosa-1,3,5,7,9,11(27),12,14,16,18(25), 19,21-dodecaen-9-yl]propanoylamino]butanedioic acid], the Water result is “insoluble”. For the setting “phosphate buffer pH = 2”, the “Buffer (pH = 2) result, fraction dissolved” value was roughly 20%.
